Assays:
[1] = tested on: CD4+Foxp3+ T cells; experiment: Mouse DC / CD4+ T cell co-culture, Foxp3+ TREG induction; type: cell-based
Method: (§1) FIG. 5, panels A-C. Graphs and plots showing vitamin D augments the ability of PSA to promote TREGS. (FIG. 5, panel A) Mouse BMDCs were stimulated with PSA (or PBS), and Cyp27b1 transcript levels were measured by qRT-PCR. PSA induces the expression of Cyp27b1 from WT, but not TLR2−/− DCs. (FIG. 5, panel B) Mouse DCs were treated with PSA, washed and co-cultured with naïve CD4+ T cells. After 4 days, PSA increased Foxp3+TREGS (see % in red box). The vitamin D metabolite 25D augmented PSA-induced TREGS. (FIG. 5, panel C) Human monocytes were treated with PSA or vehicle, washed and co-cultured with CD4+ T cells from PBMCs of the same donor. The MR for Foxp3 among CD4+CD25+ T cells is shown, with or without TGFβ.
(§2) Next tested was whether vitamin D enhanced the ability of PSA to induce Foxp3+ TREG cells in vitro. BMDCs treated with PSA or PBS, with or without 25D, were incubated with CD4+ T cells from the spleens of mice. […] The Hewison group has described […] expression of CYP27B1 in human DCs, and has shown the effects of vitamin D on human TREG development in vitro [11]. However, the ability of PSA to induce human Foxp3+ TREG cells has not been reported. […] These studies further link PSA-induced TREGS to the vitamin D pathway. Thus, PSA and vitamin D may promote human TREG cells.

[2] = tested on: Cyp27b1; experiment: Cyp27b1 transcript levels in PSA-stimulated BMDCs (qRT-PCR); type: cell-based, Mouse
Method: as §1
As described, the ability of PSA to protect against colitis & EAE in mice involves Foxp3+ TREGS [8,48]. The inventors recognize that vitamin D may play a pivotal role in microbial-induced TREGS, given the ability of 1,25D to promote TREG generation and the novel findings that PSA induces the vitamin D-system. First, the cell type that is responsible for PSA-dependent conversion of 25D to active 1,25D was made. The inventors have shown that PSA activates DCs, which prime TREG responses.

[3] = tested on: experimental autoimmune encephalomyelitis (EAE); experiment: EAE clinical scores in mice on normal or vitamin D-deficient diet; type: in vivo, C57BL/6 mice
Method: FIG. 2, panels A-D. Graphs showing germ-free (GF) mice are attenuated in EAE. Female C57B1/6 mice were immunized subcutaneously (s.c.) with 150 μg MOG35-55 peptide with 200 μg of Complete Freund's adjuvant (CFA). On the same day and 2 days later, mice were injected intraperitoneally (i.p.) with 150 ng/mouse of pertussis toxin. (FIG. 2, panel A) Clinical EAE scores of SPF (dark symbols) and GF (light symbols). Data are representative of three independent experiments. (FIG. 2, panel B) Proportions of SPF and GF mice that develop various degrees of EAE, as assessed by clinical score. Results are combined from 4 experiments, with a total of 20 for SPF and 22 for GF mice. (FIG. 2, panel C) IFNγ and IL-17A cytokine ELISA analysis of cells harvested from draining lymph nodes of SPF and GF mice 8 days after immunization with MOG/CFA and cultured for 3 days in vitro with MOG peptide. (FIG. 2, panel D) CD4+CD25+Foxp3+ T cells at day 15 post-immunization. Cells were cultured for 3 days with MOG peptide, and analyzed by flow cytometry. Data from Lee et al., PANS, 2011 [2].
FIG. 6. […]
To asses EAE in mice, mice can be evaluated daily for signs of disease. The clinical course of the EAE can be scored according to the severity as follows: 0=no obvious signs of disease, 0.5=partial tail weakness (cannot raise tail against gravity), 1=limp tail, 1.5=limp tail and hindlimb weakness, 2=limp tail and impairment in righting reflex, 2.5=limp tail and hindlimb paresis (as determined by gait abnormality), 3=bilateral hindlimb paralysis, 3.5=bilateral hindlimb paralysis and forelimb paresis (as determined by in ability of the mouse to strongly grasp cage bars with the fore paws when placed on top), 4=moribund, 5=dead. […] Reduced symptoms of EAE can be evaluated by comparing clinical scores.
PSA protects mice from EAE [8]; however, it is unknown whether PSA protection requires vitamin D. To address whether PSA may serve as a viable therapy for vitamin D deficient MS patients, mice on vitamin D sufficient and deficient diets were raised, EAE was induced, and PSA's protective effects were assessed.

[4] = tested on: Cyp27b1; experiment: Colonic Cyp27b1 mRNA by qRT-PCR in mice; details: mice on vitamin D deficient diet for 6 weeks, fed PSA for 2 weeks
[5] = tested on: colitis; details: refs [4,5,22]; cited from earlier work
[6] = tested on: Foxp3 among CD4+CD25+ T cells; experiment: Human monocyte / CD4+ T cell co-culture, Foxp3 expression; type: cell-based
Method: as §1, §2

[7] = tested on: VDR; experiment: VDR mRNA levels in colonic tissue of germ-free mice; details: oral gavage of GF animals
[8] = tested on: EAE; details: refs [6,8], [31,32]; cited from earlier work

polysaccharide A [PSA]
proportions of CD4+Foxp3+ T cells in culture ([1]; BMDCs treated with PSA, co-cultured with CD4+ T cells, 4 days): increases the proportions of CD4+Foxp3+ T cells in culture | Cyp27b1 expression from BMDCs ([2]; TLR2−/− DCs): did not respond to PSA | Cyp27b1 expression from BMDCs ([2]; WT bone marrow-derived dendritic cells): induces Cyp27b1 expression | interaction of PSA with vitamin D in EAE protection ([3]; PSA groups on sufficient versus deficient diet): synergizes with vitamin D during protection from EAE | EAE clinical score at the peak of disease ([3]; day 14, vitamin D sufficient and deficient diets, PSA 100 μg/dose orally 3×/week): protected from EAE | EAE clinical score during the remission phase ([3]; day 20-35, vitamin D sufficient diet versus deficient, PSA 100 μg/dose orally 3×/week): attenuated in disease during the remission phase if they were fed vitamin D sufficient diets | colonic Cyp27b1 expression [4]: induces increased colonic Cyp27b1 | colitis (literature) [5]: prevents and treats colitis in mice | Foxp3 expression in human TREGS ([6]; monocytes treated with PSA, co-cultured with CD4+ T cells from PBMCs of the same donor): promotes Foxp3 expression in human TREGS in vitro | expression of VDR in the colon [7]: increases expression of VDR | EAE disease (literature) [8]: ameliorates and treats EAE

C=C1/C(=C\C=C2/CCC[C@]3(C)[C@@H]([C@H](C)CCCC(C)(C)O)CC[C@@H]23)C[C@@H](O)C[C@@H]1O [1,25D, 1,25-dihydroxyvitamin D3, reference compound]
EAE disease (literature) [8]: protected from disease

TGFβ [reference compound]
PSA-mediated TREG cells, effect of added TGFβ ([6]; with TGFβ): does not further enhance PSA-mediated TREG cells

C=C1CC[C@H](O)C/C1=C/C=C1\CCC[C@]2(C)[C@@H]([C@H](C)CCCC(C)(C)O)CC[C@@H]12 [25D, 25-hydroxyvitamin-D3, reference compound]
PSA-induced CD4+Foxp3+ T cells, effect of co-treatment ([1]; BMDCs treated with PSA with 25D): enhanced by co-treatment with 25D
